Reference: publication PMC7188855, “Nucleic acid recognition and antiviral activity of 1,4-substituted terphenyl compounds mimicking all faces of the HIV-1 Rev protein positively-charged α-helix” (Scientific Reports, 2020)
pEC50, pIC50, pKd: −log10 of the molar value. Where two headings read alike, the source gives them in different places.

Key:
[1] = tested on: full length proviral HIV-1 (NL4.3-luc); experiment: Transfection of full-length proviral HIV-1 (NL4.3-luc) in MT-2 cells; format: cell-based; conditions: Human immunodeficiency virus 1, MT2, 48 h, read-out: EC50 transfection HIV-1
[2] = biological target: RRE subdomain IIB RNA hairpin IIBh; experiment: Fluorescence intensity binding to fluorescein-labelled IIBh hairpin; parameters: species or system HIV-1; conditions: for IIB-DNA spec., Kd(IIBh)/Kd(IIBh+LTRd) / IIB-tRNA spec., Kd(IIBh)/Kd(IIBh+tRNA): low ionic strength, 10 mM sodium phosphate pH 6.6, uses Kd1
From the text: We next determined whether the terphenyl molecules blocked the interaction between Rev34–50 and subdomain IIB by binding to the RNA and, if so, whether they recognized subdomain IIB in a manner similar to the Rev34–50 α-helix. We first evaluated subdomain IIB association by measuring changes in the fluorescence intensity of a IIBh RNA hairpin construct containing a fluorescein probe attached to unpaired loop IIB residue U23 (Fig. 1D)[21],[22]. […] However, there were significant differences among the compounds.
These experiments measured association to IIBh-23fl or TARh-8fl RNA molecules labelled with fluorescein at extrahelical loop nucleotides U23 and U8, respectively (Fig. 1D), and were carried out under two different ionic conditions in a Victor X5 plate reader, using excitation and emission wavelengths of 485 and 520 nm, respectively. We also attempted to measure association to an alternative IIBh hairpin containing 2-aminopurine instead of adenine at unpaired loop IIB residue A19[21], but all terphenyls fluoresced at the excitation wavelength of this fluorophore. IIBh-23fl or TARh-8fl (at 100 nM concentration) was equilibrated for 5 minutes after each ligand addition in a buffer containing either 10 mM sodium phosphate pH 6.6 and 0.1 mM EDTA or 10 mM HEPES pH 7.5, 200 mM KCl and 2 mM MgCl2. In addition to the TARh specificity control, the RNA and DNA specificity of the IIBh interactions was assessed by duplicating the experiments in the presence of a 10-fold molar excess (1 μM) of either tRNA^Lys or DNA duplex LTRd. The equilibrium dissociation constants Kd were determined by fitting the fluorescence intensity curves with DYNAFIT[40]. We used one-site, two independent-sites and two interacting-sites binding models for all curves, and the best model was automatically selected by model discrimination analysis, except where indicated. The final graphs were plotted with Prism. All fluorescence intensity experiments were performed at least two times for each compound and condition.

HIV-1 LTR promoter = experiment: Transfection of pLTR-luc in MT-2 cells; conditions: Human immunodeficiency virus 1, MT2, 48 h, read-out: EC50 transfection HIV-1 LTR
Procedure: To further assess the mechanism of antiviral action of the compounds, we checked whether they also interfered with the regulatory sequences of HTLV-1, a closely related retrovirus.
MT-2 cells were transfected with plasmids containing a luciferase reporter gene whose expression was under the control of the full length proviral HIV-1 (NL4.3-luc), the HIV-1 LTR promoter (pLTR-luc), or the HTLV-1 LTR promoter (pLTR(HTLV)-luc). After transfection, cells were treated with different compound concentrations, and activity quantification was performed 48 h later by determining luciferase activity in cell lysates as described[7],[21],[22].

high-order RRE-Rev = experiment: EMSA of full-length RRE-Rev ribonucleoprotein formation; format: binding, HIV-1; conditions: 78 nM RRE, 1.32 μM Rev, 300 mM KCl, 1 mM MgCl2, band of high-order complexes
From the text: After the high-affinity interaction between RRE subdomain IIB and the Rev34–50 helix of the first Rev monomer is established, the RRE-Rev ribonucleoprotein is formed by the incorporation of additional Rev units binding to further sites in the RRE (Fig. 3B, right)[9],[10],[13]. Using an electrophoretic mobility shift assay (EMSA) involving full-length RRE and Rev, we also evaluated whether 1,4-terphenyl compounds were capable of interfering with the formation of the ribonucleoprotein. […] The effect was particularly prominent for high-order complexes (containing a greater number of Rev monomers), but the inhibition of low-order complexes by 1d was also detected at concentrations consistent with the IC50 value measured in the IIB-Rev34–50 displacement experiment. Compounds 1b and 3c exerted a weaker effect on the RRE-Rev complex, in agreement with the results obtained in the displacement experiments monitored by fluorescence anisotropy (Fig. 3B and Table 1).
The experiments monitoring RRE-Rev inhibition utilized 78 nM full-length RRE and 1.32 μM full-length Rev dissolved in 10 mM HEPES pH 7.5, 300 mM KCl, 1 mM MgCl2 and 0.5 mM EDTA binding buffer, and increasing concentrations of each compound up to 50 μM[21],[39]. The reactions were incubated at room temperature for 20 minutes and loaded onto 8% polyacrylamide gels with TB running buffer. Gels were run at 4 °C for 1–4 hours at 150 V, and the bands were stained with SYBR gold and quantified with Quantity One 4.1 analysis software. Experiments monitoring binding to the 58-base pair HIV-1 LTRc core segment utilized 20 nM LTRc duplex dissolved in the same binding buffer, and increasing concentrations of each compound. The reactions were similarly incubated and loaded onto 20% polyacrylamide gels with TB running buffer. The gels were run at 4 °C for 3.5 hours at 150 V, and the bands were stained and quantified as described above. The specificity of LTRc association was evaluated by duplicating the experiments in the presence of a 100-fold molar excess of DNAd duplex (28-fold base-pair molar excess). In all cases, we monitored the disappearance of the band corresponding to high-order RRE-Rev complexes or free LTRc, and 50% response RC50 values were determined with Prism by fitting the data to a sigmoidal inhibitory model: I−Imin=ImaxC/1+C/RC50 where I is the intensity of the band corresponding to LTRc or high-order RRE-Rev species at compound concentration C, Imax the best-fit value for maximum intensity, and Imin the minimum intensity obtained at the highest concentration of inhibitor. All EMSA experiments were repeated three times for each compound.

[3] = Cellular viability (CellTiterGlo) in mock infected cells; format: cell-based; conditions: human, mock infected MT-2 cells
Procedure: (§1) The methodology used to perform and analyse these experiments has been reported elsewhere[7],[21],[22]. Briefly, infectious supernatants were obtained from transfection of plasmid pNL4.3-Ren on 293 T cells, MT-2 cells were infected with these supernatants in the presence of the compounds, and anti-HIV activity quantification was performed 48 h post-infection by determining luciferase activity in cell lysates compared to a non-treated control (100%). Cellular viability was evaluated in mock infected cells similarly treated with the same concentrations of compounds using the CellTiterGlo (Promega) assay.

[4] = biological target: RRE subdomain IIB-Rev34–50; experiment: Fluorescence anisotropy displacement of the IIBh-Rev34–50 interaction; conditions: read-out: IC50, RRE subdomain IIB-Rev34–50, 60 nM IIBh, 10 nM frevp, 100 mM KCl, 20 mM NaCl, 2 mM MgCl2
Procedure: These experiments were conducted in a Victor X5 (PerkinElmer) plate reader as described before[7],[21], using 10 nM frevp and 60 nM IIBh. […] Each fluorescence anisotropy experiment was repeated at least two times.

HIV-1 = experiment: Cellular HIV-1 infection assay (NL4.3-Ren, MT-2 cells); format: cell-based; conditions: Human immunodeficiency virus 1, MT2, 48 h post-infection
Procedure: as §1

[5] = 10 mM sodium phosphate pH 6.6, 0.1 mM EDTA, two-site model, read-out: Kd (IIBh), first-site Kd1
[6] = 10 mM sodium phosphate pH 6.6, 0.1 mM EDTA, two-site model, read-out: Kd (IIBh), second-site Kd2 (in brackets)
[7] = 10-fold molar excess DNA duplex LTRd, 10 mM sodium phosphate pH 6.6, 0.1 mM EDTA, one-site fit, approximate, read-out: Kd (IIBh+LTRd)
[8] = 10-fold molar excess LTRd, 10 mM HEPES pH 7.5, 200 mM KCl, 2 mM MgCl2, read-out: Kd (IIBh+LTRd), one-site or first-site Kd1, Table S2
[9] = 10-fold molar excess tRNALys, 10 mM sodium phosphate pH 6.6, 0.1 mM EDTA, one-site fit, approximate, read-out: Kd (IIBh+tRNA)
[10] = higher ionic strength, 10 mM HEPES pH 7.5, 200 mM KCl, 2 mM MgCl2
[11] = higher ionic strength, 10 mM HEPES pH 7.5, 200 mM KCl, 2 mM MgCl2, read-out: Kd (IIBh), first-site Kd1, Table S2
[12] = higher ionic strength, 10 mM HEPES pH 7.5, 200 mM KCl, 2 mM MgCl2, read-out: Kd (IIBh), second-site Kd2 (in brackets), Table S2
[13] = 10-fold molar excess tRNALys, 10 mM HEPES pH 7.5, 200 mM KCl, 2 mM MgCl2, one-site fit, approximate, read-out: Kd (IIBh+tRNA), Table S2

Compound	pEC50 [1]	pKd [2, 5]	pKd [2, 6]	pKd [2, 7]	pKd [2, 8]	pKd [2, 9]	IIB-DNA spec., Kd(IIBh)/Kd(IIBh+LTRd), Table S2 [2, 10]	pKd [2, 11]	pKd [2, 12]	IIB-DNA spec., Kd(IIBh)/Kd(IIBh+LTRd) [2]	IIB-tRNA spec., Kd(IIBh)/Kd(IIBh+tRNA) [2]	pEC50 (HIV-1 LTR promoter)	pIC50 (high-order RRE-Rev)	CC50 at 48 h [3]	pIC50 [4]	pEC50 (HIV-1)	pKd ([2]; 10-fold molar excess LTRd, 10 mM HEPES pH 7.5, 200 mM KCl, 2 mM MgCl2, read-out: Kd (IIBh+LTRd), second-site Kd2 (in brackets), Table S2)	pKd [2, 13]	IIB-tRNA spec., Kd(IIBh)/Kd(IIBh+tRNA), Table S2 [2, 10]
COc1cc(CCN)c(-c2cc(C)c(-c3cc(CCN)c(OC)cc3CCN)cc2C)cc1CCN [Compound 1a]	4.91	6.01	5.23	5.62	4.82	4.55	0.29	5.36	4.74	0.41	0.035	5.14	5.17	> 100 µM	4.85	4.97	–	–	–
Cc1cc(-c2cc(CCN)ccc2CCN)c(C)cc1-c1cc(CCN)ccc1CCN [Compound 1d]	5.22	6.06	5.46	5.66	5.43	5.11	2.1	5.12	4.52	0.40	0.11	5.49	5.52	> 100 µM	4.33	4.24	4.27	4.38	0.18
Cc1cc(-c2cc(CCN)ccc2CCN)c(C)cc1-c1cccc(CCN)c1 [Compound 3c]	4.81	5.19	4.59	5.09	< 4.30	5.28	–	< 4.30	–	0.80	1.3	5.48	< 4.30	> 100 µM	< 4.00	4.85	–	< 4.30	–
